Data as given in patent US11884627B2, “Compounds and compositions for treating conditions associated with LPA receptor activity” (Lhotse Bio, Inc., priority 2022, dated 2024).
Where two headings read alike, the source gives them in different places.

Target: T1, human LPA1 (Homo sapiens, UniProt Q92633)
T1 construct: expressed in transfected cells; host or cells: CHO-K1
Test: In vitro LPA1 calcium flux antagonist assay - Bioduro protocol
Format: cell-based
Settings: CHO-K1 cells overexpressing human LPA1 and G15a, LPA challenge at EC80
Description: In Vitro LPA1 Calcium Flux Antagonist Assay—Bioduro Protocol
CHO-K1 cells overexpressing human LPA1 and G15a were seeded at a total volume of 20 μL (15000 cells/well) into Matrigel pre-coated 384-well plates (corning −3764) and incubated at 37° C. After overnight incubation, the cells were serum starved for 4 h. Assays were performed in dye loading buffer containing 1× Fluo-8 AM (AAT Bioquest, 21080) and 2.5 mM probenecid (Thermo Fisher, 36400) in HBSS/20 mM Hepes. After cell starvation, the medium was replaced with 20 μL of dye loading buffer and incubated at 37° C., for 30 min. Then 5 μL of 5× compound titrated in dye loading buffer was added to the cells and incubated for 30 min followed by LPA challenge at EC80. Calcium mobilization was measured on a FLIPR Tetra (MSD). For LPA EC80 determination, starved cells were incubated with 20 μL of dye loading buffer for 1 h, then 5 μL of 5×LPA titrated in dye loading buffer was added to the cells. Calcium signals induced by LPA was monitors on a FLIPR.
Percentage inhibition is calculated using the following formula: % Inhibition=100%×(1−(mean RFU of test sample−mean RFU of DMSO)/(mean RFU of LPA control−mean RFU of DMSO)).
Table B3 and Table B4 show the biological activity of compounds in in vitro LPA1 Calcium flux antagonist assay—Bioduro protocol.

[1] = calcium mobilization on FLIPR Tetra, read-out: IC50
[2] = Table B3, read-out: Activity (IC50 class)

T1 sequence (Q92633 whole entry): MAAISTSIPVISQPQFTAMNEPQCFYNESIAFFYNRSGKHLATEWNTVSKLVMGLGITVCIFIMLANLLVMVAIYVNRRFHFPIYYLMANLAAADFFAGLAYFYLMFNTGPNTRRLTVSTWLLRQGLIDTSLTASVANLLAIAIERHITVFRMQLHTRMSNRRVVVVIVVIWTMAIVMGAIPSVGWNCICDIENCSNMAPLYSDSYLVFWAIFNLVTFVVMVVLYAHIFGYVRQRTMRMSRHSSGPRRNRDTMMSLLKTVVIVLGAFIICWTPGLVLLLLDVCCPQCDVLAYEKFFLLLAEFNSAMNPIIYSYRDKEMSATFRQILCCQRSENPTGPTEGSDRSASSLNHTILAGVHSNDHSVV

| IC50 [1] [µM] | IC50 [2] [µM] | SMILES |
| --- | --- | --- |
| 0.163 | 0.1 to 1 | COc1cc(-c2ccc(NC3(C(=O)O)CCOCC3)cc2CO[C@@H]2CCC[C@H]2OC)c(C)c(OC)c1C (racemic) [Compound 204] |
| 0.0643 | < 0.1 | COc1cc(-c2ccc(NC3(C(=O)O)CCOCC3)cc2CCC2CCOC2)cc(OC)c1C (single isomer, unassigned) [Compound 186, 4-((3′,5′-dimethoxy-4′-methyl-2-(2-(tetrahydrofuran-3-yl)ethyl)-[1,1′-biphenyl]-4-yl)amino)tetrahydro-2H-pyran-4-carboxylic acid] |
| 0.772 | 0.1 to 1 | COc1cc(-c2ccc(NC3(C(=O)O)CCCOC3)cc2COC2CCCC2)c(C)c(OC)c1C (single isomer, unassigned) [Compound 200] |
| 0.0732 | < 0.1 | COc1cc(-c2ccc(NC3(C(=O)O)CCCOC3)cc2COC2CCCC2)c(C)c(OC)c1C (single isomer, unassigned) [Compound 201] |
| 0.0186 | < 0.1 | COc1cc(-c2ccc(NC3(C(=O)O)CCOCC3)cc2COC2COc3ccccc32)cc(OC)c1C (single isomer, unassigned) [Compound 216] |
| 0.584 | 0.1 to 1 | COc1cc(-c2ccc(NC3(C(=O)O)CCOCC3)cc2COC2COc3ccccc32)cc(OC)c1C (single isomer, unassigned) [Compound 217] |
| 0.00476 | < 0.1 | COc1cc(-c2ccc(NC3(C(=O)O)CCOCC3)cc2COC2COc3ccccc32)c(F)c(OC)c1C (single isomer, unassigned) [Compound 223] |
| 0.158 | 0.1 to 1 | COc1cc(-c2ccc(NC3(C(=O)O)CCOCC3)cc2COC2COc3ccccc32)c(F)c(OC)c1C (single isomer, unassigned) [Compound 224] |
| 0.0636 | < 0.1 | COc1cc(-c2ccc(NC3(C(=O)O)CCC(C)(OC)CC3)cc2COC2CCCC2)c(F)c(OC)c1C (single isomer, unassigned) [Compound 237] |
| 0.268 | 0.1 to 1 | COc1cc(-c2ccc(NC3(C(=O)O)CCC(C)(OC)CC3)cc2COC2CCCC2)c(F)c(OC)c1C (single isomer, unassigned) [Compound 238] |
| 0.087 | 0.1 to 1 | COc1c(C(C)OC)ccc(-c2ccc(NC3(C(=O)O)CCOCC3)cc2COC2CCCC2)c1C (single isomer, unassigned) [Compound 241] |
| 0.266 | 0.1 to 1 | COc1c(C(C)OC)ccc(-c2ccc(NC3(C(=O)O)CCOCC3)cc2COC2CCCC2)c1C (single isomer, unassigned) [Compound 242] |
| 0.0198 | < 0.1 | COc1cc(-c2ccc(NC3(C(=O)O)CCOCC3)cc2COC2Cc3ccccc3C2)cc(OC)c1C [Compound 111, 4-({2-[(2,3-dihydro-1H-inden-2-yloxy)methyl]-3′,5′-dimethoxy-4′-methyl-[1,1′-biphenyl]-4-yl}amino)oxane-4-carboxylic acid] |
| 0.0148 | < 0.1 | COc1cc(-c2ccc(NC3(C(=O)O)CCOCC3)cc2COC2Cc3ccccc3C2)cc(OC)c1C(C)=O [Compound 123] |
| 0.0916 | < 0.1 | COc1cc(-c2ccc(NC3(C(=O)O)CCOCC3)cc2COC2CCCC2)cc(OC)c1C(C)=O [Compound 124] |
| 0.0163 | < 0.1 | COc1cc(-c2ccc(NC3(C(=O)O)CCOCC3)cc2COC2Cc3ccccc3C2)cc(OC)c1C#N [Compound 127] |
| 0.0906 | < 0.1 | COc1cc(-c2ccc(NC3(C(=O)O)CCOCC3)cc2COC2CCCC2)cc(OC)c1C [Compound 134, 4-({2-[(cyclopentyloxy)methyl]-3′,5′-dimethoxy-4′-methyl-[1,1′-biphenyl]-4-yl}amino)-oxane-4-carboxylic acid] |

Second part, the compound before the results:

| SMILES | IC50 [1] [µM] | IC50 [2] [µM] |
| --- | --- | --- |
| COc1cc(-c2ccc(NC3(C(=O)O)CC(OC)C3)cc2COC2Cc3ccccc3C2)cc(OC)c1C (single isomer, unassigned) [Compound 125] | 0.116 | 0.1 to 1 |
| COc1cc(-c2ccc(NC3(C(=O)O)CC(OC)C3)cc2COC2Cc3ccccc3C2)cc(OC)c1C (single isomer, unassigned) [Compound 126] | 0.0321 | < 0.1 |
| COc1cc(OC)cc(-c2ccc(NC3(C(=O)O)CCOCC3)cc2COC2COc3ccccc32)c1 (single isomer, unassigned) [Compound 158] | 0.0463 | < 0.1 |
| COc1cc(OC)cc(-c2ccc(NC3(C(=O)O)CCOCC3)cc2COC2COc3ccccc32)c1 (single isomer, unassigned) [Compound 159] | > 10 | > 1 |
| COc1cc(-c2ccc(NCCC(=O)O)cc2COCCc2ccccc2)cc(OC)c1C [Compound 106] | 3.48 | > 1 |
| COc1cc(-c2ccc(N(C)CCC(=O)O)cc2COC2Cc3ccccc3C2)cc(OC)c1C [Compound 107] | 2.58 | > 1 |
| COc1cc(-c2ccc(NCC(=O)O)cc2COC2Cc3ccccc3C2)cc(OC)c1C [Compound 108] | 1.88 | > 1 |
| COc1cc(-c2ccc(NC3(C(=O)O)CCC3)cc2COC2Cc3ccccc3C2)cc(OC)c1C [Compound 110, 1-((2-(((2,3-dihydro-1H-inden-2-yl)oxy)methyl)-3′,5′-dimethoxy-4′-methyl-[1,1′-biphenyl]-4-yl)amino)cyclobutane-1-carboxylic acid] | 0.152 | 0.1 to 1 |
| COc1cc(-c2ccc(NC3(C(=O)O)CCCC3)cc2COC2Cc3ccccc3C2)cc(OC)c1C [Compound 112] | 0.188 | 0.1 to 1 |
| CCOc1cc(-c2ccc(NCCC(=O)O)cc2COC2Cc3ccccc3C2)cc(OCC)c1C [Compound 113] | 7.13 | > 1 |
| COc1cc(-c2ccc(NCCC(=O)O)cc2OCC2(C)Oc3ccccc3O2)cc(OC)c1C [Compound 115] | 6.82 | > 1 |
| COc1cc(-c2ccc(NCC(C)C(=O)O)cc2COC2Cc3ccccc3C2)cc(OC)c1C (stereo not shown) [Compound 116] | 2.16 | > 1 |
| COc1cc(-c2ccc(OC3(C(=O)O)CC3)cc2COC2Cc3ccccc3C2)cc(OC)c1C [Compound 117, 1-({2-[(2,3-dihydro-1H-inden-2-yloxy)methyl]-3′,5′-dimethoxy-4′-methyl-[1,1′-biphenyl]-4-yl}oxy)cyclopropane-1-carboxylic acid] | 0.0605 | < 0.1 |
| COc1cc(-c2ccc(C3(C(=O)O)CC3)cc2COC2Cc3ccccc3C2)cc(OC)c1C [Compound 118, 1-{2-[(2,3-dihydro-1H-inden-2-yloxy)methyl]-3′,5′-dimethoxy-4′-methyl-[1,1′-biphenyl]-4-yl}cyclopropane-1-carboxylic acid] | 0.0964 | < 0.1 |
| COc1cc(-c2ccc(NC3(C(=O)O)C[C@@H]3C)cc2COC2Cc3ccccc3C2)cc(OC)c1C (stereo partly drawn) [Compound 119, (2S)-1-((2-(((2,3-dihydro-1H-inden-2-yl)oxy)methyl)-3′,5′-dimethoxy-4′-methyl-[1,1′-biphenyl]-4-yl)amino)-2-methylcyclopropane-1-carboxylic acid] | 0.0356 | < 0.1 |
| COc1cc(-c2ccc(NC3(C(=O)O)CC(F)(F)C3)cc2COC2Cc3ccccc3C2)cc(OC)c1C [Compound 120] | 0.057 | < 0.1 |
| COc1cc(-c2ccc(NC3(C(=O)O)CC3)cc2COC2Cc3ccccc3C2)cc(OC)c1C(C)=O [Compound 121, 1-({4′-acetyl-2-[(2,3-dihydro-1H-inden-2-yloxy)methyl]-3′,5′-dimethoxy-[1,1′-biphenyl]-4-yl}amino)cyclopropane-1-carboxylic acid] | 0.0135 | < 0.1 |
| COc1cc(-c2ccc(NC3(C(=O)O)CC3)cc2COC2Cc3ccccc3C2)c(C)c(OC)c1C(C)=O [Compound 122] | 0.112 | 0.1 to 1 |
| COc1cc(-c2ccc(NC3(C(=O)O)CN(C(C)=O)C3)cc2COC2Cc3ccccc3C2)cc(OC)c1C [Compound 128] | 0.0314 | < 0.1 |
| COC(=O)N1CC(Nc2ccc(-c3cc(OC)c(C)c(OC)c3)c(COC3Cc4ccccc4C3)c2)(C(=O)O)C1 [Compound 129] | 0.0172 | < 0.1 |
| COc1cc(-c2ccc(NC3(C(=O)O)CC(O)C3)cc2COC2Cc3ccccc3C2)cc(OC)c1C (stereo not shown) [Compound 130] | 0.191 | 0.1 to 1 |
| COc1cc(-c2ccc(NC3(C(=O)O)CC(O)C3)cc2COC2Cc3ccccc3C2)cc(OC)c1C (stereo not shown) [Compound 131] | 0.19 | 0.1 to 1 |
| COc1cc(-c2ccc(NC3(C(=O)O)CCOCC3)cc2CCC2(C)Oc3ccccc3O2)cc(OC)c1C [Compound 132, 4-({3′,5′-dimethoxy-4′-methyl-2-[2-(2-methyl-1,3-benzodioxol-2-yl)ethyl]-[1,1′-biphenyl]-4-yl}amino)oxane-4-carboxylic acid] | 0.0201 | < 0.1 |
| COc1cc(-c2ccc(NC3(C(=O)O)CCN(C(C)=O)CC3)cc2COC2Cc3ccccc3C2)cc(OC)c1C [Compound 133] | 0.0829 | < 0.1 |
